This is an account of results in ChEMBL document CHEMBL1201862, “PubChem BioAssay data set” (2004).

Among the test systems are HOP-92; NCI/ADR-RES; M19-MEL; UACC-62; DMS-273; NCI-H226; DMS-114; XF498; KM-20L2; MCF7; DLD-1.
Holding throughout (assay): growth of human tumour cells (NCI), 48 h

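Dose response: 5 concentrations. Exposure: 48 h. Format: 96-well plates. Endpoint: linear interpolation; highest concentration if not reached. GI50 marks 50% less growth.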 Activity calls are given as the source filed them. Rule as the data show it: active = GI50 up to about 1.1 µM and inactive = higher. A value given as a limit tells only on which side of the number the result lay.

On to `COC1=C(C)C(=O)C2=C(C1=O)[C@@H]1[C@@H]3Cc4c(OC(=O)CO)c(C)c(OC)c(O)c4[C@H](CNC(=O)C(C)=O)N3[C@@H](C#N)[C@H](C2)N1C`, for which the GI50 in the assay on HOP-92 is < 0.0119 µM (active); with NCI/ADR-RES, 1.08 µM (active); with M19-MEL, < 0.0171 µM (active); in the assay with UACC-62, < 0.0208 µM (active); in the assay with DMS-273, 0.0189 µM (active); with NCI-H226 it was 0.0871 µM (active). The GI50 is < 0.01 µM (active) with DMS-114; < 0.01 µM (active) with XF498; 0.0466 µM (active) in the assay with KM-20L2; 0.0332 µM (active) in the assay with MCF7; 0.0115 µM (active) in the assay with DLD-1.
For the compound `C[C@H](N)C(=O)N[C@@H]1[C@H]2C(=C(O)C[C@@H](O)[C@@H]2O)C(=O)O[C@@H]1C`, the GI50 in the assay on HOP-92, in the assay on NCI/ADR-RES, in the assay on M19-MEL, in the assay on UACC-62, in the assay with DMS-273 and with NCI-H226 was > 100 µM (inactive) in each case. The GI50 in the assay on DMS-114 was > 100 µM (inactive); in the assay with XF498, > 82 µM (inactive); in the assay on KM-20L2 it was > 100 µM (inactive); in the assay with MCF7, > 100 µM (inactive); with DLD-1, > 100 µM (inactive).
For the compound `CC1[C@@]2(O[C@@H]3C=C4C5CCC6Cc7nc8c(nc7C[C@@]6(C)C5C[C@H](O)[C@@]4(C)[C@]13O)CC1CCc3c(cc4c5c3C(O)C[C@H]5[C@@H](C)C3(O4)OC(C)(C)CC3O)[C@]1(C)C8)O[C@@](C)(CO)C[C@@H]2O` (some centres not stated), the GI50 was 2.28 µM (inactive) in the assay with M19-MEL; 0.169 µM (active) in the assay with UACC-62; 0.0504 µM (active) with DMS-273; 0.185 µM (active) in the assay with NCI-H226; 0.119 µM (active) with DMS-114; 0.0162 µM (active) in the assay with XF498. In addition, the GI50 was 0.37 µM (active) in the assay on KM-20L2, 0.21 µM (active) in the assay on MCF7 and 1.79 µM (inactive) with DLD-1.
With `C#CCNC(=O)CCC(N)C(=O)O` (configuration not stated), the GI50 in the assay with HOP-92, in the assay with NCI/ADR-RES, in the assay on M19-MEL, with UACC-62, with DMS-273 and with NCI-H226 was > 100 µM (inactive) in each case. For the same compound, the GI50 with DMS-114, in the assay on XF498, in the assay with KM-20L2, in the assay on MCF7 and in the assay with DLD-1 was > 100 µM (inactive) throughout.
